Data taken from patent US20210085711A1 (Japan Tobacco Inc., priority 2017, published 2021).

Test system: patients with hypermenorrhea-associated gynecologic diseases
Assay: Phase II clinical trial of JTT-751: safety evaluation (harmful events) in combined use with medicaments affecting the amount of menstrual bleeding
Format: in vivo, human
Conditions: combined with carbazochrome sodium sulfonate, transamin or ethynylestradiol combinations
Description: This test was a three-stage safety and efficacy clinical trial at multi-facilities. The first stage was a pre-observation period (Day −40 to Day −1), the second stage was an administration period (Day 1 to Day 48) (efficacy and safety evaluation period), and the third stage was a post-observation period (Day 49 to Day 63) (efficacy and safety evaluation period). The safety evaluation and efficacy evaluation were performed by multi-facility collaboration, placebo control, random allocation, double-blind trial, and parallel group comparison test. […]
(1) Regarding the subjective symptoms and objective findings, when “expression of new abnormality” was observed between the start of the trial drug administration and nine weeks after Week 0 or at the end of examination after discontinuation as compared to before the start of the trial drug administration. […] (3) Regarding clinical examination, vital sign and standard 12-induced electrocardiogram, when the principal investigator or subinvestigator determined that an abnormality newly recognized between the start of the trial drug administration and nine weeks after Week 0 or at the end of examination after discontinuation, or aggravation of abnormality observed from before the start of the trial drug administration was a clinical problem. […]

Ferric citrate [JTT-751]
harmful event caused by combined use with medicaments affecting the amount of menstrual bleeding: no harmful event caused by the combined use was reported
